Like-named read-outs stand apart in the source and are kept apart here.

The values below come from paper PMC8658806, “New Carbonic Anhydrase-II Inhibitors from Marine Macro Brown Alga Dictyopteris hoytii Supported by In Silico Studies” (Molecules, 2021).

This assay has as its target T1, purified bovine erythrocyte CA-II (Bos taurus, UniProt P00921).
T1 construct: purified bovine erythrocyte CA-II; from tissue; host or cells: bovine erythrocytes
The assay can be described thus: Carbonic anhydrase II inhibition (4-nitrophenyl acetate hydrolysis, microplate). The assay is classed as biochemical. The following applies: for % Inhibition: preliminary screening, test concentration not given. As for the experimental part: The total reaction volume of 200 µL including 20 µL of test compounds, isolated from Dictyopteris hoytii, and prepared in DMSO, followed by the addition of 140 µL of HEPES–tris buffer, 20 µL of purified bovine erythrocyte CA-II (0.1 mg/mL) prepared in buffer, and 20 µL of a solution of 4-nitrophenyl acetate. Then, 20 µL of the test compound was incubated with the enzyme carbonic anhydrase (EC 4.2.1.1) for 15 min in 96-well flat bottom plates. The rate of product formation was monitored with the addition of 20 µL of 4-NPA as substrate, prepared in methanol at the final concentration of 0.7 mM, at 25 °C for 30 min with regular intervals of 1 min, by using microplate readers (Bio-Rad, Molecular Devices, CA, USA). HEPES-tris was used as a buffer for the reaction at a final concentration of 20 mM at pH 7.4.

Setting [1] is: Table 1 and text, unit given, NA = not active, read-out: IC50 ± SEM.

T1 sequence (P00921 whole entry): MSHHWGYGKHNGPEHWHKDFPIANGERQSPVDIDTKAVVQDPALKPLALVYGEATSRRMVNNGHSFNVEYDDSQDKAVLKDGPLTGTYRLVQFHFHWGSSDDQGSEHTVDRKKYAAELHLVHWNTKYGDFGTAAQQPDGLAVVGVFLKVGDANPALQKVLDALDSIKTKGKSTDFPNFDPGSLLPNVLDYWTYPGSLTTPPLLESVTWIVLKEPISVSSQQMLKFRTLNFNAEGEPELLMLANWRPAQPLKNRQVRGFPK

Take `C/C=C(\CC[C@@H](C)[C@H]1CC[C@H]2[C@@H]3CC=C4C[C@@H](O)CC[C@]4(C)[C@H]3CC[C@]12C)C(C)C` [Compound 15, fucosterol]: the IC50 turned out to be 31.3 ± 1.34 µM and the “% Inhibition” value came out at 69.8%.

On to `O=Cc1ccccc1/C=C/C(=O)O` [Compound 1, (E)-3-(2-formylphenyl)acrylic acid], for which the “% Inhibition” value was 79.4%. For the same compound, under setting [1], the IC50 amounted to 44.9 ± 1.1 µM.

Take “ethyl methyl 2-bromobenzene 1,4-dioate [Compound 13]”: the “% Inhibition” value is listed as 87.3%. Moreover, the concentration for half-maximal inhibition (IC50) under setting [1] stood at 39.5 ± 0.73 µM. Besides, where the note is “Table 2 repeat of Table 1 values, read-out: IC50 ± S.E.M”, the IC50 was determined as 39.5 ± 0.73 µM.

Regarding `C=CCCCCCCCCCCCCCCCC` [Compound 7, octadec-1-ene], the “% Inhibition” value turned out to be 88.0%. The IC50 under setting [1] is 16.3 ± 0.31 µM.

`CCCCCCCCCCCCCCCCCCC=CCCCCCCCC(=O)O` [Compound 19, n-octacos-9-enoic acid]: the “% Inhibition” value is 87.3%. For the same compound, the IC50 under setting [1] turned out to be 24.3 ± 1.38 µM.

Consider `O=Cc1ccc(C=O)cc1` [Compound 9, terephthalaldehyde], for which the “% Inhibition” value stood at 93.9%. The IC50 under setting [1] came to 53.1 ± 1.2 µM.

Regarding `COC(OC)c1ccc(/C=C/C(=O)O)cc1` [Compound 5, (E)-3-(4-(dimethoxymethyl)phenyl)acrylic acid], the “% Inhibition” value was 93.9%. The IC50 under setting [1] turned out to be 17.7 ± 2.01 µM.
